Columns and labels:
[1] = system: streptozotocin (STZ)-induced diabetic rats; experiment: Follow-up study, 15 weeks of diabetes: AC and PL in retinal trypsin digests, intravitreal or osmotic pump delivery; format: in vivo, rat; details: for number of PL / development of AC: diabetic rats, 15 weeks; for number of AC (FIG. 2) / number of PL (FIG. 2): diabetic rat retinas
Protocol: (§1) All animal studies were performed according to the ARVO Statement for the Use of Animals in Ophthalmic and Vision Research. In the pilot study to determine the optimal concentration of danegaptide, twelve Sprague-Dawley male rats, each weighing 200 g, were used. Nine of the twelve rats were injected intraperitoneally with streptozotocin (STZ) (55 mg/kg body weight) to induce diabetes for 6 weeks. The remaining 3 animals served as non-diabetic controls. After 6 weeks of diabetes, the animals were killed and retinas were isolated. In the follow-up study to determine the effect of 1000 nM danegaptide on the number of AC and PL, thirty-six Sprague-Dawley male rats, each weighing 200 g, were used. Thirty of the thirty-six rats were injected with STZ to induce diabetes for 15 weeks. The remaining six animals served as non-diabetic controls. After 15 weeks of diabetes, the animals were killed and retinas were isolated. The glucose concentration in blood and urine were checked after 2 or 3 days after STZ injection to confirm diabetes status in the animals. Blood glucose levels were measured in each animal 2-3 times weekly and at the time of death. The diabetic group represented rats with blood glucose levels of >350 mg/dL. The diabetic rats received NPH insulin injection as needed to maintain blood glucose levels.
The enucleated eyes were placed in 10% formalin for at least 24 hrs. The eyes were then cut in half with a razor blade, and the retinas were isolated and placed into 0.5M glycine for 24-48 hrs. RTD was performed as described in Kuwabara & Cogan (Studies of retinal vascular patterns. I. Normal architecture. Archives of ophthalmology 1960; 64:904-911). Each retina went through a series of washes with 3% trypsin, and the non-vascular mass of the retina was removed. The retinal capillary network was then isolated and mounted onto a silane-coated slide.
RTDs were stained with periodic acid-Schiff and hematoxylin as described in Bobbie et al. (Reduced connexin 43 expression and its effect on the development of vascular lesions in retinas of diabetic mice. Investigative ophthalmology & visual science 2010; 51:3758-3763). Ten representative fields were imaged using a digital camera attached to a microscope and the images were analyzed for AC and PL. Apoptotic pericytes were identified as PL based on prominent histological characteristics, including basement membrane protrusion as empty shell. Capillaries devoid of both pericytes and endothelial cells were considered as AC.
To determine the optimal concentration of danegaptide (DG), a Cx43 gap junction coupler, two concentrations (200 nM or 1000 nM) were tested via intravitreal injections in streptozotocin (STZ)-induced diabetic rats. Diabetes was induced via STZ for 6 weeks and at the end of the study, eyes were enucleated, and retinas subjected to retinal trypsin digestion (RTD) for isolation of capillary networks and stained with Hematoxylin and Periodic Acid Schiff's (PAS) reagent to analyze the number of acellular capillaries (AC) and pericyte loss (PL). Based on this pilot study, 1000 nM danegaptide was injected intravitreally in the follow-up study to determine the effect of improved cell coupling on retinal vascular cell death. Additionally, danegaptide was administered systemically using osmotic pumps. The number of rats used in this study was at least 6 per group. Overall, rats were divided into 6 groups: wild type (WT) control rats, STZ-induced diabetic rats, diabetic rats intravitreally injected with danegaptide, diabetic rats intravitreally injected with water, diabetic rats systemically delivered with danegaptide, and diabetic rats systemically delivered with water. Diabetes was induced via STZ for 15 weeks and at the end of the study, retinas were isolated and subjected to RTD for analyses of AC and PL. […]

[2] = system: Rat retinal endothelial cells (RRECs); experiment: Scrape load dye transfer (SLDT) assay of GJIC; format: cell-based; details: HG (30 mM) medium, 100 nM, 3, 5 and 7 days
Protocol: (§2) Rat retinal endothelial cells (RRECs) were grown for 3, 5, and 7 days in normal (N; 5 mM) or HG (30 mM) medium; in parallel, cells grown in HG medium were exposed for 3, 5, and 7 days to 100 nM Danegaptide (DG), an AAP10 analogue, which stabilizes Cx43 mediated cell coupling. In addition, cells grown in N medium were treated with a Cx43 blocker (negative control) which inhibits GJ coupling, or a positive control AAP10, protecting GJIC. To determine GJIC, scrape load dye transfer (SLDT) assay was performed at the three time points. Similarly, cells were assessed for apoptosis and cell monolayer permeability by differential dye staining assay and in vitro permeability assay, respectively.

[3] = system: Primary retinal endothelial cells from rats; experiment: Transcriptomic effects in an in vitro diabetic retinopathy model; format: cell-based, rat; details: HG medium
Protocol: The transcriptomic effects of danegaptide in an in vitro diabetic retinopathy model were investigated to 1) reveal transcriptomic changes in diabetic-like conditions with or without danegaptide and 2) associate functional effects previously observed to transcriptomic modifications and 3) identify pathways involved in danegaptide effects on relevant cells under diabetes-like conditions. Primary retinal endothelial cells from rats were plated for in vitro experiments under four experiments conditions, Normal Glucose medium (NG), High Glucose medium (HG), High Glucose medium+Danegaptide 100 nM (HG_DG100) and High Glucose medium+Danegaptide 1000 nM (HG_DG1000). The samples were assessed at four time points (4 hours after plating, 1 day after plating, 3 days after plating and 5 days after plating).

diabetic rats = experiment: In vivo permeability (IVP): extravasation of FITC-dextran in retinal capillaries; parameters: species or system rat; details: for vascular leakage (FIG. 3): diabetic rat retinas; for vascular leakage: 15 weeks
Protocol: To determine if improvement in Cx43-mediated gap junction intercellular communication (GJIC) prevents retinal vascular cell death and excess retinal vascular permeability, danegaptide was administered intravitreally or via osmotic pumps in rats. 60 male Sprague Dawley rats were randomly assigned into six groups, each consisting of 10 rats: non-diabetic rats, diabetic rats, diabetic rats intravitreally injected with DG (1000 nM concentration), diabetic rats intravitreally injected with sterile water as vehicle, diabetic rats treated systemically with DG (70 mg/mL to achieve 100 nM plasma DG concentration) via osmotic pumps, and diabetic rats treated systemically via osmotic pump with sterile water as control. Diabetes was induced for 15 weeks and at the end of the study all animals were examined and subsequently sacrificed and their retinas were examined for (i) in vivo permeability (IVP), (ii) RTD, and (iii) optical coherence tomography (OCT) for analyses of vascular leakage, AC and PL, and retinal thickness, respectively.
To determine the effect of improved cell-cell coupling on retinal vascular permeability under hyperglycemic stress, extravasation of FITC-dextran was assessed in the retinal capillaries following FITC-dextran tail vein injection performed shortly before animals were sacrificed.

[4] = system: streptozotocin (STZ)-induced diabetic rats; experiment: Pilot study, 6 weeks of diabetes: AC and PL in retinal trypsin digests after intravitreal injection; format: in vivo, rat; details: n=3
Protocol: as §1, with “After 15 weeks of diabetes, the animals were killed and retinas were isolated. The glucose concentration in blood and urine were checked after 2 or 3 days after STZ injection to confirm diabetes status in the animals.” left out, “The diabetic group represented rats with blood glucose levels of >350 mg/dL. The diabetic rats received NPH insulin injection as needed to maintain blood glucose levels.” left out
RTDs were stained with periodic acid-Schiff and hematoxylin as described in Bobbie et al. (Reduced connexin 43 expression and its effect on the development of vascular lesions in retinas of diabetic mice. Investigative ophthalmology & visual science 2010; 51:3758-3763). Ten representative fields were imaged using a digital camera attached to a microscope and the images were analyzed for AC and PL. […]

[5] = system: Rat retinal endothelial cells (RRECs); experiment: In vitro cell monolayer permeability assay; format: cell-based; details: HG (30 mM) medium, 100 nM
Protocol: as §2

[6] = system: Rat retinal endothelial cells (RRECs); experiment: Apoptosis by differential dye staining assay; format: cell-based; details: HG (30 mM) medium, 100 nM, 3, 5 and 7 days
Protocol: as §2

[7] = intravitreal (IV) injection vs IV injection of water
[8] = osmotic pumps (OP) vs water via OP

SMILES: NCC(=O)N1C[C@H](NC(=O)c2ccccc2)C[C@H]1C(=O)O [danegaptide, (2S,4R)-1-(2-aminoacetyl)-4-benzoylamino-pyrrolidine-2-carboxylic acid]
- number of PL ([1]; intravitreal 1000 nM): 112±62 % of control
- number of AC (FIG. 2) [1, 7]: significantly reduced
- number of PL (FIG. 2) [1, 7]: significantly reduced
- development of AC ([1]; intravitreal injections 1000 nM): 134±28 % of control
- number of AC (FIG. 2) [1, 8]: significantly reduced
- number of PL (FIG. 2) [1, 8]: significantly reduced
- development of AC ([1]; systemic (osmotic pump)): 133±37 % of control
- number of PL ([1]; systemic (osmotic pump)): 103±65 % of control
- GJIC (SLDT assay) [2]: preserved GJIC
- Fscn3 expression (downregulated in HG versus NG) [3]: reverse by danegaptide
- expression of genes differentially expressed in high glucose vs normal glucose ([3]; 100 or 1000 nM, 4 h and 1 d): reverses expression of some genes
- Tpcn2 expression (downregulated in HG versus NG) ([3]; 4 h): reversed by danegaptide
- Cacybp expression (downregulated in HG versus NG) ([3]; 1 d): reversed by danegaptide
- expression of transcripts Dnm1I, Nucb2, Trmt10a (down-regulated under HG) ([3]; day 1): generally increased the expression
- vascular leakage (FIG. 3) (diabetic rats; IV injection vs IV injection of water): significantly reduced
- difference in vascular leakage between intravitreal and systemic treatment (diabetic rats; diabetic rats): no significant difference
- vascular leakage (diabetic rats; intravitreal DG 1000 nM, diabetic rats): 149±22 % of control
- vascular leakage (FIG. 3) (diabetic rats; [8]): significantly reduced
- vascular leakage (diabetic rats; systemic DG via osmotic pump (100 nM plasma target), diabetic rats): 143±14 % of control
- number of PL (pericyte loss) ([4]; intravitreal injection 1000 nM, vs untreated diabetic rat retinas): significantly reduced
- number of AC (acellular capillaries) ([4]; intravitreal injection 200 or 1000 nM): decreased in the danegaptide treated groups but fell short of statistical significance
- cell monolayer permeability [5]: significantly decreased by day 5
- HG-induced apoptosis [6]: rescued cells from HG-induced apoptosis at all three time points

Reference: patent publication US11324799B2, “Gap junction intercellular communication modulators and their use for the treatment of diabetic eye disease” (ZEALAND PHARMA A/S, priority 2017, dated 2022)
